# Assay results from ChEMBL document CHEMBL2311456, “Synthesis and in vitro evaluation of potential anticancer activity of mono- and bis-1,2,3-triazole derivatives of bis-alkynes” (Eur J Med Chem, 2013).
# Test system: B16
# Assay: Cytotoxicity against mouse B16 cells after 48 hrs by MTT assay
# Format: functional, cell-based
# Conditions: B16, 48 h
row,SMILES,IC50 [µM]
1,C#CCNC(=O)c1cn(CCOC(C)=O)nn1,> 100
2,O=C(Nc1ccc(-c2cn(Cc3ccccc3)nn2)cc1)c1cn(Cc2ccccc2)nn1,> 100
3,CCOC(=O)Cn1cc(-c2ccc(NC(=O)c3cn(Cc4ccccc4)nn3)cc2)nn1,36.3
4,CC(=O)OCCn1cc(-c2ccc(NC(=O)c3cn(Cc4ccccc4)nn3)cc2)nn1,13.2
5,CCOC(=O)Cn1cc(C(=O)Nc2ccc(-c3cn(CCOC(C)=O)nn3)cc2)nn1,> 100
6,CC(=O)OCCn1cc(C(=O)Nc2ccc(-c3cn(Cc4ccccc4)nn3)cc2)nn1,> 100
7,CCOC(=O)Cn1cc(-c2ccc(NC(=O)c3cn(CCOC(C)=O)nn3)cc2)nn1,> 100
8,CC(=O)OCCn1cc(C(=O)Nc2ccc(-c3cn(CCOC(C)=O)nn3)cc2)nn1,> 100
9,O=C(Nc1ccccc1)c1cn(Cc2ccccc2)nn1,93
10,CCOC(=O)Cn1cc(C(=O)Nc2ccccc2)nn1,> 100
11,CC(=O)OCCn1cc(C(=O)Nc2ccccc2)nn1,> 100
12,C#Cc1cccc(NC(=O)c2cn(Cc3ccccc3)nn2)c1,14.5
13,C#Cc1cccc(NC(=O)c2cn(CC(=O)OCC)nn2)c1,91
14,C#Cc1cccc(NC(=O)c2cn(CCOC(C)=O)nn2)c1,25.1
15,C#Cc1ccc(NC(=O)c2cn(Cc3ccccc3)nn2)cc1,> 100
16,C#Cc1ccc(NC(=O)c2cn(CC(=O)OCC)nn2)cc1,> 100
17,C#Cc1ccc(NC(=O)c2cn(CCOC(C)=O)nn2)cc1,79
18,O=C(NCc1cn(Cc2ccccc2)nn1)c1cn(Cc2ccccc2)nn1,0.3
19,CCOC(=O)Cn1cc(CNC(=O)c2cn(Cc3ccccc3)nn2)nn1,35
20,CC(=O)OCCn1cc(CNC(=O)c2cn(Cc3ccccc3)nn2)nn1,28

row,SMILES,IC50 [µM]
1,O=C(Cn1cc(C(=O)NCc2cn(Cc3ccccc3)nn2)nn1)OCc1ccccc1,22.4
2,CCOC(=O)Cn1cc(CNC(=O)c2cn(CC(=O)OCc3ccccc3)nn2)nn1,> 100
3,CC(=O)OCCn1cc(CNC(=O)c2cn(CC(=O)OCc3ccccc3)nn2)nn1,> 100
4,CC(=O)OCCn1cc(C(=O)NCc2cn(Cc3ccccc3)nn2)nn1,> 100
5,CCOC(=O)Cn1cc(CNC(=O)c2cn(CCOC(C)=O)nn2)nn1,> 100
6,CC(=O)OCCn1cc(CNC(=O)c2cn(CCOC(C)=O)nn2)nn1,> 100
7,O=C(Nc1cccc(-c2cn(Cc3ccccc3)nn2)c1)c1cn(Cc2ccccc2)nn1,4.5
8,CCOC(=O)Cn1cc(-c2cccc(NC(=O)c3cn(Cc4ccccc4)nn3)c2)nn1,21
9,CC(=O)OCCn1cc(-c2cccc(NC(=O)c3cn(Cc4ccccc4)nn3)c2)nn1,25.1
10,CCOC(=O)Cn1cc(C(=O)Nc2cccc(-c3cn(Cc4ccccc4)nn3)c2)nn1,20.4
11,CCOC(=O)Cn1cc(C(=O)Nc2cccc(-c3cn(CC(=O)OCC)nn3)c2)nn1,> 100
12,CCOC(=O)Cn1cc(C(=O)Nc2cccc(-c3cn(CCOC(C)=O)nn3)c2)nn1,> 100
13,CC(=O)OCCn1cc(C(=O)Nc2cccc(-c3cn(Cc4ccccc4)nn3)c2)nn1,> 100
14,CCOC(=O)Cn1cc(-c2cccc(NC(=O)c3cn(CCOC(C)=O)nn3)c2)nn1,63
15,CC(=O)OCCn1cc(C(=O)Nc2cccc(-c3cn(CCOC(C)=O)nn3)c2)nn1,> 100
16,C#CCNC(=O)C#C,38
17,C#CC(=O)Nc1cccc(C#C)c1,0.3
18,C#CC(=O)Nc1ccc(C#C)cc1,6.3
19,C#CCNC(=O)c1cn(Cc2ccccc2)nn1,65
20,C#CCNC(=O)c1cn(CC(=O)OCc2ccccc2)nn1,> 100

# Test system: B16
# Assay: Ratio of propargyl amine IC50 to compound IC50 for mouse B16 cells after 48 hrs by MTT assay
# Format: functional
# Conditions: not given
row,SMILES,Ratio IC50
1,C#CC(=O)Nc1cccc(C#C)c1,127
